Measurements reported in patent US5358712A, “Radiopharmaceutical agents for the detection of Alzheimer's disease” (Regents of the University of Minnesota, priority 1993, dated 1994).

How the values were obtained:
[1] = Tissue distribution (biodistribution) of radioiodinated compound in the rat; settings: for tissue uptake at 5 min / tissue uptake at 0.5 h / tissue uptake at 1 h / tissue uptake at 3 h: rat, iv; for tissue uptake at 0.5 h: 30 min; for tissue uptake at 1 h: 60 min; for tissue uptake at 3 h: 180 min
Method: Four groups of male Wistar rats (with four animals per group) weighing 200-350 g were used in these experiments. Each animal received, while under ether anesthesia, an intravenous injection of the radiotracer (10-20 μCi) dissolved in 0.1 ml of 50% aqueous ethanol. At 5, 30, and 60 and 180 min. post-injection, blood was collected from the anesthetized animals by cardiac puncture, and the animal was immediately sacrificed by cardiectomy. The organs and tissues of interest were harvested, transferred to preweighed tubes and counted in a Beckman gamma counter. The tubes were subsequently reweighed to give the weight of the corresponding tissues. Preweighed tubes containing ^1 -ml samples of a 1:100 dilution of the injection dose were also counted and used as reference for calculating the tissue accumulation of radioactivity. The accumulation of radiotracer was expressed as a percentage of injected dose per gram of tissue.

[2] = test system: vesamicol receptor; assay: Blocking experiments: inhibition of radiotracer accumulation in the rat by coadministered compound; assay type: in vivo, rat (male Wistar)
Method: *Animals in group 1 received an iv injection of (+)4-[^125 l]HIPP
only. For groups 2, 3, and 4, the radiotracer was coadministered with the
hydrochlorides of (+)7 (0.53 mg/kg), (-)7 (0.53 mg/kg) and vesamicol (0.3
Four groups of male Wistar rats (n=3) were used in these experiments. All animals received an iv dose of 8-10 μCi of the radiotracer in 0.1 ml of 50% aq. ethanol. Additionally, in groups 2, 3 and 4, the radiotracer was coadministered with (+)-HBrPP.HCl(1.3 μmol/kg), (-)-HBrPP.HCl(1.3 μmol/kg) and (dl)-vesamicol hydrochloride (1.1 μmol/kg), respectively. At 60 min. post-injection, blood was collected by cardiac puncture and the animals sacrificed as described above. The data was analyzed as outlined above.
NOTE: The dose of radiotracer injected was 5-7 mCi. Group I was the
control, injected with the radiotracer only. Group II included the
simultaneous injection of "cold"(dl)3-HIPP (HCl) (0.53 mg/kg). Group III
included the simultaneous injection of (dl) vesamicol (HCl) (0.31 mg/kg).
All rats were sacrificed at one hour postinjection.
NOTE: Group I was the control, injected with the radiotracer only. Group
II included the simultaneous injection of "cold"(dl)3-HIPP (HCl) (0.53
mg/kg). Group III included the simultaneous injection of (dl) vesamicol
hydrochloride (0.31 mg/kg). The dose of radiotracer was 8-9 μCi. All
rats were sacrificed at one hour postinjection.
NOTE: Group I received (+)[^125 l]13 only. Group II received the (+)
radiotracer coinjected with 0.31 mg/kg (dl)vesamicol hydrochloride. Group
III received (-)[^125 l]13 only. Group IV received the (-) radiotrace
coinjected with 0.31 mg/kg (dl)vesamicol hydrochloride. All animals were
sacrificed at one hour postinjection. The dose of radiotracer injected pe

[3] = kidney, radioactivity in kidney
[4] = muscle, radioactivity in muscle
[5] = spleen, radioactivity in spleen

Work on OC(Cc1ccc([125I])cc1)CN1CCC(c2ccccc2)CC1 (single isomer, unassigned; (+)) [(+)-4-[^125 l]HIPP, 2-Hydroxy-3-(4-iodophenyl)-1-(4-phenylpiperidyl)propane] yielded a tissue uptake at 5 min ([1]; blood, radioactivity in blood) of 0.08 %ID/g, a tissue uptake at 0.5 h ([1]; blood, radioactivity in blood) of 0.04 %ID/g and a tissue uptake at 1 h ([1]; blood, radioactivity in blood) of 0.03 %ID/g. For the same molecule, the tissue uptake at 5 min ([1]; brain, radioactivity in brain) was 1.2 %ID/g, the tissue uptake at 0.5 h ([1]; brain, radioactivity in brain) was 1.22 %ID/g and the tissue uptake at 1 h ([1]; brain, radioactivity in brain) was 1.23 %ID/g. It also gave a tissue uptake at 3 h ([1]; brain, radioactivity in brain) of 1.35 %ID/g, a tissue uptake at 5 min ([1]; heart, radioactivity in heart) of 1.8 %ID/g and a tissue uptake at 0.5 h ([1]; heart, radioactivity in heart) of 1.23 %ID/g. The tissue uptake at 1 h ([1]; heart, radioactivity in heart) was 1.12 %ID/g, the tissue uptake at 3 h ([1]; heart, radioactivity in heart) was 0.84 %ID/g and the tissue uptake at 5 min [1, 3] was 2.84 %ID/g. For the same molecule, the tissue uptake at 0.5 h [1, 3] was 2.42 %ID/g, the tissue uptake at 1 h [1, 3] was 2.3 %ID/g and the tissue uptake at 3 h [1, 3] was 1.81 %ID/g. For the same molecule, the tissue uptake at 5 min ([1]; liver, radioactivity in liver) was 1.58 %ID/g, the tissue uptake at 0.5 h ([1]; liver, radioactivity in liver) was 2.55 %ID/g and the tissue uptake at 1 h ([1]; liver, radioactivity in liver) was 2.43 %ID/g. The tissue uptake at 3 h ([1]; liver, radioactivity in liver) was 2.38 %ID/g, the tissue uptake at 5 min ([1]; lung, radioactivity in lung) was 11.5 %ID/g and the tissue uptake at 0.5 h ([1]; lung, radioactivity in lung) was 5.59 %ID/g. For the same molecule, the tissue uptake at 1 h ([1]; lung, radioactivity in lung) was 4.75 %ID/g, the tissue uptake at 3 h ([1]; lung, radioactivity in lung) was 3.74 %ID/g and the tissue uptake at 5 min [1, 4] was 0.24 %ID/g. For the same molecule, the tissue uptake at 0.5 h [1, 4] was 0.25 %ID/g, the tissue uptake at 1 h [1, 4] was 0.19 %ID/g and the tissue uptake at 3 h [1, 4] was 0.24 %ID/g. The tissue uptake at 5 min [1, 5] was 0.71 %ID/g, the tissue uptake at 0.5 h [1, 5] was 1.28 %ID/g and the tissue uptake at 1 h [1, 5] was 1.23 %ID/g. For the same molecule, the tissue uptake at 3 h [1, 5] was 1.39 %ID/g.

For OC(Cc1ccc(I)cc1)CN1CCC(c2ccccc2)CC1 (racemic) [Compound 5, (dl)-2-Hydroxy-3-(4-iodophenyl)-1-(4-phenylpiperidyl)propane], the “vesamicol receptor ligand (in words)” value ([2]; conclusion from blocking and regional distribution in vivo) was “potent ligand”, the “effect of coadministered vesamicol on accumulation (in words)” value ([2]; rat) was “can be blocked by vesamicol” and the “brain retention (in words)” value ([1]; rodent (and monkey)) was “prolonged brain retention”.
